Like-named read-outs stand apart in the source and are kept apart here.
Columns and labels:
Format in all cases: physicochemical
[1] = Oxidation stability, Rancimat 676 automatic oils and fats stability test
Text: Index of the oxidation stability was expressed by the time until conductance of the trapped water started rising. […] Index of the oxidation stability was expressed by the time until conductance of the trapped water started rising.

[2] = Refractive index (refractometer Model 3)
Experimental: Refractive index of the dimerdiol esters obtained in Examples 1, 3, 5, 7, 9 and 11 were measured. Each of the refractive index was measured at 30° C. using a refractometer Model 3 (Manufactured by ATAGO BUSSAN Ltd.).
Refractive index of the esters obtained in Examples 28-35 were measured. Each of the refractive index was measured at 20° C. using a refractometer Model 3 (Manufactured by ATAGO BUSSAN Ltd.).

[3] = Alkali hydrolysis resistance; settings: 0.8 g of sample heated at 80° C. for 3 hours in 25 mL of 0.05 N KOH-ethanol solution
Experimental: Alkali hydrolysis resistance of the dimerdiol esters obtained in Examples 1, 3, 5, 7, 9 and 11 were measured. The alkali hydrolysis resistance was expressed by the decomposition ratio of 0.8 g of sample which was heated at 80° C. for 3 hours in 25 mL of 0.05 N of KOH-ethanol solution.

[4] = Dispersability for pigment, titanium dioxide
Text: (§1) Titanium dioxide, red iron oxide and organic pigment used in the measurement are PIGMOLITE CR-50, PIGMOLITE BENGARA No. 211 and Red 202, respectively, manufactured by DAITO KASEI KOGYO Co. Ltd. The dispersability is expressed by amount (g) of the tested sample per 100 g of the pigment at wet point (W.P) and flow point (F.P).

[5] = Dispersability for pigment, red iron oxide; settings: amount of tested sample per 100 g of the pigment at wet point
Text: as §1

[6] = Dispersability for pigment, organic pigment Red No. 202
Text: as §1

[7] = Gloss of wax-solidified ester (handy glossmeter); settings: coated on paraffin paper, intensity of reflected light at 60°
Experimental: Each of the solidified product was coated on paraffin paper and gloss was measured with a handy glossmeter manufactured by HORIBA Ltd. Gloss was expressed by intensity of light reflected on the coated surface of paraffin paper at incident angle/reflection angle of 60°.

[8] = 120° C., 3 g of sample, air flow rate 20 L/Hr, time until conductance of the trapped water started rising, esters of Examples 1-12
[9] = amount of tested sample per 100 g of the pigment at flow point
[10] = amount of tested sample per 100 g of the pigment at wet point

Row | Refractive index ([2]; 30° C.) | Decomposition ratio [3] | Compound | Index of oxidation stability [1, 8] | further results
1 | 1.4709 | 70% | isostearic acid dimerdiol ester [Example 11] | 8 h | –
2 | – | 8% | CC(C)CCCCC(=O)OCC(O)CO (centres unmarked) [glyceryl isooctanoate, reference compound] | – | –
3 | 1.4778 | – | dimerdiol [PESPOL HP-1000] | – | –

The remaining lines, values behind:

Row | Compound | Refractive index ([2]; 30° C.) | Decomposition ratio [3] | Index of oxidation stability [1, 8] | further results
4 | hydrogenated rosin dimerdiol ester [Example 1] | 1.5075 | 3% | 6 h | –
5 | mono-isostearic acid dimerdiol ester [Example 5] | 1.4659 | 71% | 8 h | –
6 | long chain branched fatty acid dimerdiol ester [Example 7] | – | – | – | Index of oxidation stability [1]: 4 h
7 | erucic acid dimerdiol ester [Example 3] | 1.4719 | 79% | 3 h | –
8 | CC(C)CCCCCCCCCCCCCCCOC(=O)CC(O)C(=O)OCCCCCCCCCCCCCCCC(C)C (centres unmarked) [di-iostearyl malate, di-isostearyl malate] | – | – | – | Refractive index ([2]; 20° C.): 1.4611; Titanium dioxide F.P [4, 9]: 55 g; Titanium dioxide W.P [4, 10]: 26 g; Red iron oxide W.P [5]: 63 g; Red 202 F.P [6, 9]: 200 g; Red 202 W.P [6, 10]: 106 g; Gloss, Candelira wax ([7]; solidified by compounding 20% of candelira wax): 41; Gloss, Ceresin ([7]; solidified by compounding 20% of ceresine): 35
